# Test results from ChEMBL document CHEMBL1201862, “PubChem BioAssay data set” (2004).
#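 Grown in 96-well plates, cells were treated for 48 hours with each compound at five concentrations. Insufficient inhibition: endpoint recorded as highest concentration tested. At the GI50, growth is halved.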 Calls of active or inactive are those of the source. Rule as the data show it: active = GI50 up to about 1.1 µM and inactive = higher.
# What was measured:
# Experiment in all cases: DTP human tumour cell line panel, 48 h
# [1] = test system: NCI-H226
# [2] = test system: Malme-3M
# [3] = test system: A549
# [4] = test system: DMS-114
# [5] = test system: 786-0
# [6] = test system: HCT-116
# [7] = test system: LXFL 529
# [8] = test system: XF498
# [9] = test system: M14
# [10] = test system: SK-MEL-28
# [11] = test system: SNB-75
# [12] = test system: HOP-18
# [13] = test system: HL-60
# [14] = test system: OVCAR-3
# [15] = test system: SF-268
# [16] = test system: EKVX
# [17] = test system: SW-620
# [18] = test system: U-251
# [19] = test system: DLD-1
# [20] = test system: SK-MEL-5
# [21] = test system: SK-MEL-2
# [22] = test system: NCI-H23
# [23] = test system: HOP-92
# [24] = test system: KM12
# [25] = test system: TK-10
# [26] = test system: K562
# [27] = test system: M19-MEL
# [28] = test system: IGROV-1
# [29] = test system: UACC-62
# [30] = test system: SF-539
# [31] = test system: SK-OV-3
# [32] = test system: DMS-273
# [33] = test system: OVCAR-5
# [34] = test system: SNB-19
# [35] = test system: RXF 393
# [36] = test system: HCT-15
# [37] = test system: OVCAR-4
# [38] = test system: NCI-H460
# [39] = test system: OVCAR-8
# [40] = test system: CAKI-1
# [41] = test system: KM-20L2
# [42] = test system: HT-29
# [43] = test system: HOP-62
# [44] = test system: ACHN
# [45] = test system: SN12C
# [46] = test system: SNB-78
# [47] = test system: RPMI-8226
# [48] = test system: A498
# [49] = test system: SF-295
# [50] = test system: CCRF-CEM
# [51] = test system: UACC-257
# [52] = test system: MOLT-4
# [53] = test system: COLO 205
# [54] = test system: HCC 2998
# [55] = test system: UO-31
# [56] = test system: SR
# [57] = test system: LOX IMVI
compound,measurement,setting,value
CC1=NOC(=O)C1/N=N/c1ccc(Br)c(C)c1 (stereo not given),GI50,[1],25.5 µM (inactive)
same,GI50,[2],18.7 µM (inactive)
same,GI50,[3],20.3 µM (inactive)
same,GI50,[4],15.6 µM (inactive)
same,GI50,[5],20 µM (inactive)
same,GI50,[6],17.7 µM (inactive)
same,GI50,[7],15.5 µM (inactive)
same,GI50,[8],17.6 µM (inactive)
same,GI50,[9],20.5 µM (inactive)
same,GI50,[10],26.6 µM (inactive)
same,GI50,[11],30.5 µM (inactive)
same,GI50,[12],3.31 µM (inactive)
same,GI50,[13],8.39 µM (inactive)
same,GI50,[14],17.2 µM (inactive)
same,GI50,[15],22.1 µM (inactive)
same,GI50,[16],18 µM (inactive)
same,GI50,[17],17.6 µM (inactive)
same,GI50,[18],18.5 µM (inactive)
same,GI50,[19],24.4 µM (inactive)
same,GI50,[20],12.7 µM (inactive)
same,GI50,[21],16.3 µM (inactive)
same,GI50,[22],21.6 µM (inactive)
same,GI50,[23],17.3 µM (inactive)
same,GI50,[24],26.1 µM (inactive)
same,GI50,[25],18.6 µM (inactive)
same,GI50,[26],13 µM (inactive)
same,GI50,[27],18.6 µM (inactive)
same,GI50,[28],19.2 µM (inactive)
same,GI50,[29],19.3 µM (inactive)
same,GI50,[30],20.2 µM (inactive)
same,GI50,[31],34.8 µM (inactive)
same,GI50,[32],20.2 µM (inactive)
same,GI50,[33],24.9 µM (inactive)
same,GI50,[34],31.2 µM (inactive)
same,GI50,[35],19.7 µM (inactive)
same,GI50,[36],19.3 µM
same,GI50,[37],15.2 µM (inactive)
same,GI50,[38],23.9 µM (inactive)
same,GI50,[39],17.9 µM (inactive)
same,GI50,[40],16.1 µM (inactive)
same,GI50,[41],33.7 µM (inactive)
same,GI50,[42],36.2 µM (inactive)
same,GI50,[43],22.3 µM (inactive)
same,GI50,[44],17.8 µM (inactive)
same,GI50,[45],18.2 µM (inactive)
same,GI50,[46],26.4 µM (inactive)
same,GI50,[47],15.9 µM (inactive)
same,GI50,[48],21.4 µM (inactive)
same,GI50,[49],23 µM (inactive)
same,GI50,[50],11.8 µM (inactive)
same,GI50,[51],17.5 µM (inactive)
same,GI50,[52],18.4 µM (inactive)
same,GI50,[53],25 µM (inactive)
same,GI50,[54],24.8 µM (inactive)
COC(=O)C1=Cc2cc3c(cc2[C@H](c2ccc4c(c2)OCO4)C1C(=O)OC)OCO3 (stereo not given in full),GI50,[1],> 100 µM (inactive)
same,GI50,[2],> 100 µM (inactive)
same,GI50,[3],> 100 µM (inactive)
same,GI50,[4],> 100 µM (inactive)
same,GI50,[5],> 100 µM (inactive)
same,GI50,[6],41.7 µM (inactive)
same,GI50,[7],> 100 µM (inactive)
same,GI50,[8],> 100 µM (inactive)
same,GI50,[9],68.1 µM (inactive)
same,GI50,[10],> 100 µM (inactive)
same,GI50,[55],> 100 µM (inactive)
same,GI50,[11],44.8 µM (inactive)
same,GI50,[12],> 100 µM (inactive)
same,GI50,[13],65.6 µM (inactive)
same,GI50,[14],44.9 µM (inactive)
same,GI50,[15],> 100 µM (inactive)
same,GI50,[16],46.8 µM (inactive)
same,GI50,[17],71.3 µM (inactive)
same,GI50,[18],61.4 µM (inactive)
same,GI50,[19],54.5 µM (inactive)
same,GI50,[20],46.6 µM (inactive)
same,GI50,[56],59.4 µM (inactive)
same,GI50,[22],> 100 µM (inactive)
same,GI50,[23],27.4 µM (inactive)
same,GI50,[24],67.1 µM (inactive)
same,GI50,[25],> 100 µM (inactive)
same,GI50,[26],53.5 µM (inactive)
same,GI50,[27],> 100 µM (inactive)
same,GI50,[28],1.73 µM (inactive)
same,GI50,[29],58.6 µM (inactive)
same,GI50,[30],> 100 µM (inactive)
same,GI50,[31],> 100 µM (inactive)
same,GI50,[32],> 100 µM (inactive)
same,GI50,[33],> 100 µM (inactive)
same,GI50,[34],> 100 µM (inactive)
same,GI50,[35],80.4 µM (inactive)
same,GI50,[36],> 100 µM
same,GI50,[37],61.9 µM (inactive)
same,GI50,[38],89.9 µM (inactive)
same,GI50,[39],> 100 µM (inactive)
same,GI50,[40],74.1 µM (inactive)
same,GI50,[41],> 100 µM (inactive)
same,GI50,[42],36.2 µM (inactive)
same,GI50,[43],> 100 µM (inactive)
same,GI50,[44],43.9 µM (inactive)
same,GI50,[57],> 100 µM (inactive)
same,GI50,[45],> 100 µM (inactive)
same,GI50,[46],> 100 µM (inactive)
same,GI50,[47],> 100 µM (inactive)
same,GI50,[48],0.0745 µM (active)
same,GI50,[49],38.5 µM (inactive)
same,GI50,[50],> 100 µM (inactive)
same,GI50,[51],> 100 µM (inactive)
same,GI50,[52],35.6 µM (inactive)
same,GI50,[53],37.8 µM (inactive)
same,GI50,[54],> 100 µM (inactive)
